Measured values reported in patent US8207160B2, “Tetrahydrobenzazepines and their use in he modulation of the dopamine D3 receptor” (Abbott GmbH & Co. KG, priority 2003, dated 2012).
Like-named read-outs stand apart in the source and are kept apart here.

Columns and labels:
[1] = biological target: T1, human dopamine D2L receptors (long isoform) (Homo sapiens, UniProt P14416); assay: Dopamine D2L receptor binding, displacement of [125I]-iodospiperone; settings: Ki(D2L)/Ki(D3); human D2L and D3 receptors in HEK-293 membranes
T1 construct: expressed in transfected cells; membranes used
T1 sequence (P14416 whole entry, canonical isoform): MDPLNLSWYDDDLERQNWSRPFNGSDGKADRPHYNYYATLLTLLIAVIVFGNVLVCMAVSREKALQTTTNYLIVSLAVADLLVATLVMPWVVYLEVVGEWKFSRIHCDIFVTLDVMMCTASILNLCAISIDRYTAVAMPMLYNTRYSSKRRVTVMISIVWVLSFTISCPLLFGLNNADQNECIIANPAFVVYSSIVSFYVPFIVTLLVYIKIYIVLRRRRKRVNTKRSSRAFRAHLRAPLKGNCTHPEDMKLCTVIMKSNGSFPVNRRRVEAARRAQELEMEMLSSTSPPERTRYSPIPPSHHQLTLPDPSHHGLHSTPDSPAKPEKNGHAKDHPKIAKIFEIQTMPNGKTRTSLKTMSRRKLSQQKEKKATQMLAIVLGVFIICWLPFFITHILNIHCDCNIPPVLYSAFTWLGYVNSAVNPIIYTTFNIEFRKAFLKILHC
Procedure: (§1) C) Biological Investigations—Receptor-Binding Studies: • The substance to be tested was dissolved either in methanol/Chremophor®) (BASF-AG) or in dimethyl sulfoxide and then diluted with water to the desired concentration.
II. Dopamine D2L receptor: • The mixture (1 ml) was composed of membranes from ˜10^6 HEK-293 cells with stably expressed human dopamine D2L receptors (long isoform) and 0.01 nM [^125I]-iodospiperone and incubation buffer (total binding) or additionally test substance (inhibition plot) or 1 μM haloperidol (nonspecific binding). Triplicate assays were carried out. • The incubation buffer contained 50 mM Tris, 120 mM NaCl, 5 mM KCl, 2 mM CaCl2, 2 mM MgCl2 and 0.1% bovine serum albumin. The buffer was adjusted to 7.4 with HCl.
(§2) III. Measurement and Evaluation: • After incubation at 25° C. for 60 minutes, the mixtures were filtered through Wathman GF/B glass fiber filters under vacuum using a cell harvester. The filters were transferred using a filter transfer system into scintillation vials. After addition of 4 ml of Ultima Gold® (Packard), the samples were shaken for one hour and then the radioactivity was counted in a Beta Counter (Packard, Tricarb 2000 or 2200CA). The cp values were converted into dpm on the basis of a standard quench series with the aid of the program supplied with the instrument. • The inhibition plots were evaluated by iterative nonlinear regression analysis using the Statistical Analysis System (SAS), similar to the “LIGAND” program described by Munson and Rodbard. • The compounds of the invention show very good affinities for the D3 receptor in these assays (<100 nM, frequently <50 nM) and bind selectively to the D3 receptor.

[2] = biological target: T2, human dopamine D3 receptors (Homo sapiens, UniProt P35462); assay: Dopamine D3 receptor binding, displacement of [125I]-iodosulpride
T2 construct: expressed in transfected cells; membranes used
T2 sequence (P35462 whole entry): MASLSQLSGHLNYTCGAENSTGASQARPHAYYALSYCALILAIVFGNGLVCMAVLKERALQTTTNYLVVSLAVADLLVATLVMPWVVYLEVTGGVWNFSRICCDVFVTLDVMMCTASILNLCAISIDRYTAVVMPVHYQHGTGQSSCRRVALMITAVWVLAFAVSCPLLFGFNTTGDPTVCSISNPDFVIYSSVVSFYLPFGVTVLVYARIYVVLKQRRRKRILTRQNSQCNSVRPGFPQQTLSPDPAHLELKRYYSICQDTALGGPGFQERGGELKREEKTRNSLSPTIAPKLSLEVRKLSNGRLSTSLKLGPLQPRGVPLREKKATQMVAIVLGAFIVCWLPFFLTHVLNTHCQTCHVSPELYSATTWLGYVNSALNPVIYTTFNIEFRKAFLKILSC
Procedure: as §1
I. Dopamine D3 Receptor: • The mixture (0.250 ml) was composed of membranes from ˜10^6 HEK-293 cells with stably expressed human dopamine D3 receptors, 0.1 nM [^125I]-iodosulpride and incubation buffer (total binding) or additionally test substance (inhibition plot) or 1 μM spiperone (nonspecific binding). Triplicate assays were carried out. • The incubation buffer contained 50 mM Tris, 120 mM NaCl, 5 mM KCl, 2 mM CaCl2, 2 mM MgCl2 and 0.1% bovine serum albumin, 10 μM quinolone, 0.1% ascorbic acid (prepared freshly each day). The buffer was adjusted to pH 7.4 with HCl.
as §2

[3] = membranes from HEK-293 cells with stably expressed human dopamine D3 receptors, 0.1 nM [125I]-iodosulpride, 25° C., 60 minutes, read-out: Ki (D3)

Selectivity vs. D2L* [1] | Ki [2, 3] [nM] | SMILES | Ki [2] [nM]
84 | 3.4 | C=CCN1CCc2ccc(NS(=O)(=O)c3ccc(C(F)(F)F)cc3)cc2CC1.Cl [Example 58, N-(3-Allyl-2,3,4,5-Tetrahydro-1H-3-Benzazepin-7-yl)4-(Trifluoromethyl)Benzenesulfonamide Hydrochloride] | –
66 | 1.2 | CC(C)c1ccc(S(=O)(=O)Nc2ccc3c(c2)CCN(C)CC3)cc1.Cl [Example 56, 4-Isopropyl-N-(3-Methyl-2,3,4,5-Tetrahydro-1H-3-Benzazepin-7-yl)Benzenesulfonamide Hydrochloride] | –
330 | 0.3 | CCCN1CCc2ccc(NS(=O)(=O)c3ccc(C(C)C)cc3)cc2CC1.Cl [Example 8, 4-Isopropyl-N-(3-Propyl-2,3,4,5-Tetrahydro-1H-3-Benzazepin-7-yl)Benzenesulfonamide Hydrochloride] | –
115 | 2.1 | CC(C)c1ccc(S(=O)(=O)Nc2ccc3c(c2)CCN(CC2CC2)CC3)cc1.Cl [Example 57, N-(3-Cyclopropylmethyl-2,3,4,5-Tetrahydro-1H-3-Benzazepin-7-yl)4-Isopropylbenzenesulfonamide Hydrochloride] | –
141 | 0.4 | C=CCN1CCc2ccc(NS(=O)(=O)c3ccc(C(C)C)cc3)cc2CC1.Cl [Example 65, N-(3-Allyl-2,3,4,5-Tetrahydro-1H-3-Benzazepin-7-yl)-4-(Isopropyl)Benzenesulfonamide Hydrochloride] | –
146 | 1.2 | CC(C)c1ccc(S(=O)(=O)Nc2ccc3c(c2)CCN(CCCF)CC3)cc1.Cl [Example 66, N-[3-(3-Fluoropropyl)-2,3,4,5-Tetrahydro-1H-3-Benzazepin-7-yl]-4-Isopropylbenzenesulfonamide Hydrochloride] | –
120 | 4.1 | CCCN1CCc2ccc(NS(=O)(=O)c3ccc(C(C)(C)C)cc3)cc2CC1.Cl [Example 7, 4-Tert-Butyl-N-(3-Propyl-2,3,4,5-Tetrahydro-1H-3-Benzazepin-7-yl)Benzenesulfonamide Hydrochloride] | –
368 | 1 | CCCN1CCc2ccc(NS(=O)(=O)c3ccc(CC)cc3)cc2CC1.Cl [Example 5, 4-Ethyl-N-(3-Propyl-2,3,4,5-Tetrahydro-1H-3-Benzazepin-7-yl)Benzenesulfonamide Hydrochloride] | –
99 | 7.1 | CCCN1CCc2ccc(NS(=O)(=O)c3ccc(OC(F)(F)F)cc3)cc2CC1 [Example 2, N-(3-Propyl-2,3,4,5-Tetrahydro-1H-3-Benzazepin-7-yl)-4-Trifluoromethoxy-Benzenesulfonamide] | –
252 | 5.8 | CCCN1CCc2ccc(NS(=O)(=O)c3ccc(C(F)(F)F)cc3)cc2CC1.Cl [Example 6, N-(3-Propyl-2,3,4,5-Tetrahydro-1H-3-Benzazepin-7-yl)-4-(Trifluoromethyl)-Benzenesulfonamide Hydrochloride] | –
271 | 16.5 | CCCN1CCc2ccc(NS(=O)(=O)c3ccc(C(C)=O)cc3)cc2CC1 [Example 10, 4-Acetyl-N-(3-Propyl-2,3,4,5-Tetrahydro-1H-3-Benzazepin-7-yl)Benzenesulfonamide] | –
40 | 28.2 | CCCN1CCc2ccc(S(=O)(=O)Nc3ccc(OC(F)(F)F)cc3)cc2CC1.Cl [Example 35, 3-Propyl-N-[4-(Trifluoromethoxy)Phenyl]-2,3,4,5-Tetrahydro-1H-3-Benzazepine-7-Sulfonamide Hydrochloride] | –
435 | 0.5 | C=Cc1ccc(S(=O)(=O)Nc2ccc3c(c2)CCN(CCC)CC3)cc1.Cl [Example 4, N-(3-Propyl-2,3,4,5-Tetrahydro-1H-3-Benzazepin-7-yl)-4-Vinylbenzenesulfonamide Hydrochloride] | –

The remaining lines, values behind:

SMILES | Selectivity vs. D2L* [1] | Ki [2, 3] [nM] | Ki [2] [nM]
CCCN1CCc2ccc(NS(=O)(=O)c3ccc(Br)cc3)cc2CC1.O=C(O)C(F)(F)F [Example 19, 4-Bromo-N-(3-Propyl-2,3,4,5-Tetrahydro-1H-3-Benzazepin-7-yl)Benzene-Sulfonamide Trifluoroacetate] | 65 | – | 3
CCCN1CCc2ccc(NS(=O)(=O)c3ccc(Br)cc3C)cc2CC1.O=C(O)C(F)(F)F [Example 20, 4-Bromo-2-Methyl-N-(3-Propyl-2,3,4,5-Tetrahydro-1H-3-Benzazepin-7-yl)-Benzenesulfonamide Trifluoroacetate] | 85 | 7.1 | –
CCCN1CCc2ccc(NS(=O)(=O)c3ccc(Cl)cc3)cc2CC1 [Example 3, 4-Chloro-N-(3-Propyl-2,3,4,5-Tetrahydro-1H-3-Benzazepin-7-yl)Benzenesulfonamide] | 68 | 4.1 | –
CCCN1CCc2ccc(NS(=O)(=O)c3ccc(Cl)s3)cc2CC1.O=C(O)C(F)(F)F [Example 21, N-(3-Propyl-2,3,4,5-Tetrahydro-1H-3-Benzazepin-7-yl)-5-Chlorothiophene-2-Sulfonamide Trifluoroacetate] | 47 | – | 16
CCCN1CCc2ccc(NS(=O)(=O)c3c(C)cc(C)cc3C)cc2CC1.O=C(O)C(F)(F)F [Example 12, 2,4,6-Trimethyl-N-(3-Propyl-2,3,4,5-Tetrahydro-1H-3-Benzazepin-7-yl)-Benzenesulfonamide Trifluoroacetate] | 90 | 7.2 | –
CCCN1CCc2ccc(NS(=O)(=O)c3ccc(OC)cc3)cc2CC1.O=C(O)C(F)(F)F [Example 16, 4-Methoxy-N-(3-Propyl-2,3,4,5-Tetrahydro-1H-3-Benzazepin-7-yl)Benzene-Sulfonamide Trifluoroacetate] | 142 | 8.1 | –
CCCN1CCc2ccc(NS(=O)(=O)c3ccc(C(C)(C)CC)cc3)cc2CC1.O=C(O)C(F)(F)F [Example 14, 4-(1,1-Dimethylpropyl)-N-(3-Propyl-2,3,4,5-Tetrahydro-1H-3-Benzazepin-7-yl)Benzenesulfonamide Trifluoroacetate] | 113 | 3.6 | –
CCCCc1ccc(S(=O)(=O)Nc2ccc3c(c2)CCN(CCC)CC3)cc1.O=C(O)C(F)(F)F [Example 13, 4-Butyl-N-(3-Propyl-2,3,4,5-Tetrahydro-1H-3-Benzazepin-7-yl)Benzene-Sulfonamide Trifluoroacetate] | 143 | 0.6 | –
CCCN1CCc2ccc(NS(=O)(=O)c3ccc(C)cc3)cc2CC1.O=C(O)C(F)(F)F [Example 11, 4-Methyl-N-(3-Propyl-2,3,4,5-Tetrahydro-1H-3-Benzazepin-7-yl)Benzene Sulfonamide Trifluoroacetate] | 112 | – | 4.7
CCCN1CCc2ccc(N(C)S(=O)(=O)c3ccc(C(C)C)cc3)cc2CC1.O=C(O)C(F)(F)F [Example 31, 4-Isopropyl-N-Methyl-N-(3-Propyl-2,3,4,5-tetrahydro-1H-3-Benzazepin-7-yl)Benzenesulfonamide Trifluoroacetate] | 63 | 1 | –
CCCN1CCc2ccc(CS(=O)(=O)c3ccc(C(C)C)cc3)cc2CC1 [Example 36, 7-(4-Isopropylbenzenesulfonylmethyl)-3-Propyl-2,3,4,5-Tetrahydro-1H-3-Benzazepine] | 446 | 1 | –
CCCN1CCc2ccc(NS(=O)(=O)c3ccc4ccccc4c3)cc2CC1.O=C(O)C(F)(F)F [Example 17, N-(3-Propyl-2,3,4,5-Tetrahydro-1H-3-Benzazepin-7-yl)Naphthalene-2-Sulfonamide Trifluoroacetate] | 68 | 4.5 | –
CCCN1CCc2ccc(NS(=O)(=O)c3ccc(Cl)cc3Cl)cc2CC1.O=C(O)C(F)(F)F [Example 18, 2,4-Dichloro-N-(3-Propyl-2,3,4,5-Tetrahydro-1H-3-Benzazepin-7-yl)Benzenesulfonamide Trifluoroacetate] | 85 | 7.3 | –
CCCN1CCc2ccc(NS(=O)(=O)c3cc(Cl)sc3Cl)cc2CC1.O=C(O)C(F)(F)F [Example 22, N-(3-Propyl-2,3,4,5-Tetrahydro-1H-3-Benzazepin-7-yl)-2,5-Dichlorothiophene-3-Sulfonamide Trifluoroacetate] | 46 | – | 13
